# Experimental data from patent US20260256818A1, “NOVEL CO-DRUG, CO-ADMINISTRATION, AND SEQUENTIAL ADMINISTRATION OF BISPECIFIC RBP4/TTR LIGAND AND C20-D3-RETINOL FOR ELIMINATION OF MECHANISM-BASED OCULAR ADVERSE EFFECTS IN TREATING MACULAR DEGENERATION AND TTR AMYLOIDOSIS” (The Trustees of Columbia University in the City of New York, priority 2023, published 2026).
# Assays:
# [1] = system: rhodopsin; assay: Rhodopsin measured spectrophotometrically in retinal extracts of dark-adapted mice after 7 days oral dosing; assay type: in vivo; details: wild-type Balb/c mice, 25 mg/kg daily oral (chow), n=8
# Method: FIG. 14. Effects of C20-D3-retinyl acetate on rhodopsin levels in ACPHS-52-treated Balb/c mice. Rhodopsin was measured spectrophotometrically in retinal extracts (n=8) from dark-adapted treated and control mice. Treated mice were given 7 daily oral dose of 25 mg/kg ACPHS-52 or the same dose of ACPHS-52 along with 3.3 mg/kg C20-D3-retinyl acetate. Untreated control mice were kept on standard diet.
# ACPHS-52 was previously identified and described as a compound that exemplifies a novel class of bispecific ligands that act as both RBP4 antagonists and kinetic stabilizers of TTR tetramers (Cioffi, C. L. et al. 2020). Thus, ACPHS-52 was used as a representative “first component” of the present disclosure in order to assess the feasibility of the co-drug strategy. Accordingly, an experiment was conducted to determine whether partial reduction in functional rhodopsin (opsin with conjugated 11-cis-retinal) induced by oral ACPHS-52 in mice can be compensated by co-administration with C20-D3-retinyl acetate.
# The experiment was conducted in Balb/c mice. Three groups of mice were used: control untreated mice; mice treated with ACPHS-52; and mice treated with the ACPHS-52 plus C20-D3-retinyl acetate combination. […] Rhodopsin was measured spectrophotometrically in retinal extracts (n=8) from dark-adapted treated and control mice using a previously published protocol (Racz, B. et al. 2018).
# [2] = biological target: TTR tetramers (Homo sapiens, UniProt P02766); details: cited from earlier work
# [3] = system: RBP4; details: in vivo; cited from earlier work
# [4] = system: TTR; details: ATTR-CM patients with symptomatic, chronic heart failure, Phase III; cited from earlier work
# [5] = system: lipofuscin bisretinoid synthesis; details: Abca4-/- mice; cited from earlier work
# [6] = system: RBP4; details: non-human primates, oral administration; cited from earlier work
# [7] = biological target: T1, RBP4 (Mus musculus, UniProt Q00724); details: rodents; cited from earlier work
# T1 construct: circulating RBP4 plasma levels in rodents; host or cells: plasma/serum of rodents
# [8] = Phase 2, dry AMD patients; cited from earlier work
# [9] = long-term use, cancer patients; cited from earlier work
# [10] = cited from earlier work
# [11] = patients treated for TTR amyloidosis; cited from earlier work
compound,measurement,setting,value
Cc1cc(C(=O)O)nc(N2CCC(COc3ccccc3C(F)(F)F)C2)n1 (stereo not shown) [ACPHS-52],reduction in rhodopsin in comparison to untreated mice,[1],3 fold
same,effect on TTR tetramers,[2],stabilization of TTR tetramers
same,effect on serum RBP4,[3],pronounced reduction in serum RBP4
Cc1n[nH]c(C)c1CCCOc1cc(C(=O)O)ccc1F [AG10],stabilization of TTR,[4],near-complete stabilization of TTR
[2H]C([2H])([2H])C(/C=C/C=C(C)/C=C/C1=C(C)CCCC1(C)C)=C\COC(C)=O [C20-D3-retinyl acetate],effect on retinal bisretinoid accumulation/synthesis,[5],effective in inhibiting bisretinoid synthesis
"Cc1cc(C(=O)O)nc(N2C[C@H]3CC(c4ccccc4C(F)(F)F)C[C@H]3C2)n1 (stereo partly shown) [Compound 8, BPN-14136]",effect on retinal bisretinoid accumulation/synthesis,[5],inhibited lipofuscin bisretinoid synthesis
same,effect on serum RBP4 levels,[6],robustly lowered serum RBP4 levels
"O=C(O)c1ccccc1NC(=O)N1CCC(c2ccccc2C(F)(F)F)CC1 [Compound A1120, A1120]",effect on retinal bisretinoid accumulation/synthesis,[5],reduce retinal bisretinoid accumulation
same,lowering of circulating RBP4 plasma levels,[7],> 70%
CC1=C(/C=C/C(C)=C/C=C/C(C)=C/C(=O)Nc2ccc(O)cc2)C(C)(C)CCC1 [fenretinide],drug-treated patients with reversible reduction in dark adaptation,[8],~ 10%
same,yearly prevalence of transient and reversible ocular AEs such as diminished dark adaptation,[9],5.8-6.7%
O=C(O)c1ccc2nc(-c3cc(Cl)cc(Cl)c3)oc2c1 [tafamidis],patients who do not respond,[10],Approximately 30%
patisiran,ocular adverse effect,[11],symptoms of night blindness in a subset of patients
